Results taken from ChEMBL document CHEMBL4665648, “Potent and selective inhibitors of receptor-interacting protein kinase 1 that lack an aromatic back pocket group” (Bioorg Med Chem Lett, 2019).

Legend:
[1] = molecular target: MAP kinase-interacting serine/threonine-protein kinase 2 (Homo sapiens) (UniProt Q9HBH9); assay: Inhibition of tracer 236 binding to recombinant human N-terminal GST-tagged full length MKNK2 expressed in baculovirus expression system at 10 uM incubated for 60 mins by Lanthascreen assay relative to control
[2] = molecular target: Testis-specific serine/threonine-protein kinase 1 (Homo sapiens) (UniProt Q9BXA7); assay: Inhibition of recombinant human His-tagged full length TSSK1 expressed in baculovirus expression system using Ser/Thr 04 as substrate at 10 uM incubated for 60 mins by Z'-Lyte assay relative to control
[3] = molecular target: Serine/threonine-protein kinase B-raf (Homo sapiens) (UniProt P15056); assay: Inhibition of recombinant human GST-tagged full length BRAF expressed in baculovirus expression system using Ser/Thr 03 as substrate at 10 uM incubated for 60 mins by Z'-Lyte assay relative to control
[4] = molecular target: Casein kinase I isoform delta (Homo sapiens) (UniProt P48730); assay: Inhibition of recombinant human GST-tagged full length CK1delta expressed in baculovirus expression system using Ser/Thr 11 as substrate at 10 uM incubated for 60 mins by Z'-Lyte assay relative to control
[5] = molecular target: Vascular endothelial growth factor receptor 1 (Homo sapiens) (UniProt P17948); assay: Inhibition of recombinant human GST-tagged FLT1 (781 to 1338 residues) expressed in baculovirus expression system using Tyr 04 as substrate at 10 uM incubated for 60 mins by Z'-Lyte assay relative to control
[6] = molecular target: Muscle, skeletal receptor tyrosine-protein kinase (Homo sapiens) (UniProt O15146); assay: Inhibition of recombinant human GST-tagged MUSK (519 to 869 residues) expressed in baculovirus expression system using Tyr 04 as substrate at 10 uM incubated for 60 mins by Z'-lyte assay relative to control
[7] = molecular target: PAS domain-containing serine/threonine-protein kinase (Homo sapiens) (UniProt Q96RG2); assay: Inhibition of recombinant human GST-tagged PASK (879 to 1323 residues) expressed in baculovirus expression system using Ser/Thr 07 as substrate at 10 uM incubated for 60 mins by Z'-lyte assay relative to control
[8] = molecular target: Tyrosine-protein kinase JAK3 (Homo sapiens) (UniProt P52333); assay: Inhibition of recombinant human GST-tagged JAK3 (781 to 1124 residues) expressed in baculovirus expression system using Tyr 06 as substrate at 10 uM incubated for 60 mins by Z'-lyte assay relative to control
[9] = molecular target: Serine/threonine-protein kinase N1 (Homo sapiens) (UniProt Q16512); assay: Inhibition of recombinant human GST-tagged full length PRK1 expressed in baculovirus expression system using Ser/Thr 07 as substrate at 10 uM incubated for 60 mins by Z'-lyte assay relative to control
[10] = molecular target: Tyrosine-protein kinase ITK/TSK (Homo sapiens) (UniProt Q08881); assay: Inhibition of recombinant human GST-tagged full length ITK expressed in baculovirus expression system using Tyr 04 as substrate at 10 uM incubated for 60 mins by Z'-lyte assay relative to control
[11] = molecular target: Serine/threonine-protein kinase Nek1 (Homo sapiens) (UniProt Q96PY6); assay: Inhibition of recombinant human GST-tagged NEK1 (1 to 505 residues) expressed in baculovirus expression system using Ser/Thr 07 as substrate at 10 uM incubated for 60 mins by Z'-lyte assay relative to control
[12] = molecular target: Misshapen-like kinase 1 (Homo sapiens) (UniProt Q8N4C8); assay: Inhibition of recombinant human GST-tagged MINK1 (1 to 320 residues) expressed in baculovirus expression system using Ser/Thr 07 as substrate at 10 uM incubated for 60 mins by Z'-lyte assay relative to control
[13] = molecular target: G protein-coupled receptor kinase 3 (Homo sapiens) (UniProt P35626); assay: Inhibition of recombinant human GST-tagged full length GRK3 expressed in baculovirus expression system using Ser/Thr 16 as substrate at 10 uM incubated for 60 mins by Z'-Lyte assay relative to control
[14] = molecular target: Serine/threonine-protein kinase WNK2 (Homo sapiens) (UniProt Q9Y3S1); assay: Inhibition of tracer 178 binding to recombinant human GST-tagged WNK2 (166 to 489 residues) expressed in baculovirus expression system at 10 uM incubated for 60 mins by Lanthascreen assay relative to control
[15] = molecular target: Protein kinase C beta type (Homo sapiens) (UniProt P05771); assay: Inhibition of recombinant human His-tagged full length PKCbeta1 expressed in insect expression system using Ser/Thr 07 as substrate at 10 uM incubated for 60 mins by Z'-lyte assay relative to control
[16] = molecular target: Sphingosine kinase 1 (Homo sapiens) (UniProt Q9NYA1); assay: Inhibition of recombinant human GST-tagged full length SPHK1 expressed in baculovirus expression system using sphingosine lipid substrate mixture as substrate at 10 uM incubated for 60 mins by Adapta assay relative to control
[17] = molecular target: Serine/threonine-protein kinase PAK 3 (Homo sapiens) (UniProt O75914); assay: Inhibition of recombinant human His-tagged full length PAK3 expressed in baculovirus expression system using Ser/Thr 20 as substrate at 10 uM incubated for 60 mins by Z'-lyte assay relative to control
[18] = molecular target: Phosphorylase b kinase gamma catalytic chain, liver/testis isoform (Homo sapiens) (UniProt P15735); assay: Inhibition of recombinant human N-terminal GST-tagged full length PHKG2 expressed in baculovirus expression system using Ser/Thr 07 as substrate at 10 uM incubated for 60 mins by Z'-lyte assay relative to control
[19] = molecular target: Ephrin type-A receptor 1 (Homo sapiens) (UniProt P21709); assay: Inhibition of recombinant human GST-tagged EPHA1 (568 to 976 residues) expressed in baculovirus expression system using Tyr 02 as substrate at 10 uM incubated for 60 mins by Z'-Lyte assay relative to control
[20] = molecular target: Mitogen-activated protein kinase 1 (Homo sapiens) (UniProt P28482); assay: Inhibition of recombinant human GST-tagged full length ERK2 expressed in baculovirus expression system using Ser/Thr 03 as substrate at 10 uM incubated for 60 mins by Z'-Lyte assay relative to control
[21] = molecular target: Serine/threonine-protein kinase Chk2 (Homo sapiens) (UniProt O96017); assay: Inhibition of recombinant human His-tagged full length CHK2 expressed in baculovirus expression system using Ser/Thr 07 as substrate at 10 uM incubated for 60 mins by Z'-Lyte assay relative to control
[22] = molecular target: Cyclin-dependent kinase 5/CDK5 activator 1 (Homo sapiens) (UniProt Q00535+Q15078); assay: Inhibition of recombinant human His/GST-tagged full length CDK5/p25 expressed in baculovirus expression system using Ser/Thr 12 as substrate at 10 uM incubated for 60 mins by Z'-Lyte assay relative to control
[23] = molecular target: Serine/threonine-protein kinase PAK 4 (Homo sapiens) (UniProt O96013); assay: Inhibition of recombinant human His-tagged PAK4 (295 to 591 residues) expressed in baculovirus expression system using Ser/Thr 20 as substrate at 10 uM incubated for 60 mins by Z'-lyte assay relative to control
Chain of Serine/threonine-protein kinase PAK 4 (Homo sapiens) (O96013 whole entry, looked up, the tested form may be a part): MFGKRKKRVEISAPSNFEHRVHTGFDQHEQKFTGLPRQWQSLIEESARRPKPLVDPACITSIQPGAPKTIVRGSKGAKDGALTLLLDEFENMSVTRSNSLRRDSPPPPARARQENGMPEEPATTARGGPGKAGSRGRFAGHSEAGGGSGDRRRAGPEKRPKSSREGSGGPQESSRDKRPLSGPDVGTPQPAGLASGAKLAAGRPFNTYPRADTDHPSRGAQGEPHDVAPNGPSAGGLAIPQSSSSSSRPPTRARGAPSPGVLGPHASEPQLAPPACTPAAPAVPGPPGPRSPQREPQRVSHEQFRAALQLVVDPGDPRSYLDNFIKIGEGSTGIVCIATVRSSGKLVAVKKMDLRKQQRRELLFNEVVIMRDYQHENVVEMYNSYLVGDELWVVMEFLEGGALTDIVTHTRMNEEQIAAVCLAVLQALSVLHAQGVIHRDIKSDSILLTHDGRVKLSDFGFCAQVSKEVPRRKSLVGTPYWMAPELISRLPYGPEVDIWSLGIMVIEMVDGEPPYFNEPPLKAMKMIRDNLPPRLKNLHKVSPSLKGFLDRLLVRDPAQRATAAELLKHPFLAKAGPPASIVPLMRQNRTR

Chain of Testis-specific serine/threonine-protein kinase 1 (Homo sapiens) (Q9BXA7 whole entry): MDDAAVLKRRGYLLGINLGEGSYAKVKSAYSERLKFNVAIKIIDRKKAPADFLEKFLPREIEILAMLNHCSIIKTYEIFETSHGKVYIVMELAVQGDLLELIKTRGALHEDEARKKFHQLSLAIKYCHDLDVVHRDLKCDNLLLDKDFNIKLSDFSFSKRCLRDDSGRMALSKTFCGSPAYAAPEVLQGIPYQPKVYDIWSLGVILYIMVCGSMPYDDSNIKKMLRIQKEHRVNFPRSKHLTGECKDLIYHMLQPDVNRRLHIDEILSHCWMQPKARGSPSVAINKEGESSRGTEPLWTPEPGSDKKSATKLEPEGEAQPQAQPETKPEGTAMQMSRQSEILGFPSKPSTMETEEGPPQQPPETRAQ
Chain of Serine/threonine-protein kinase N1 (Homo sapiens) (Q16512 2-942 limits assumed): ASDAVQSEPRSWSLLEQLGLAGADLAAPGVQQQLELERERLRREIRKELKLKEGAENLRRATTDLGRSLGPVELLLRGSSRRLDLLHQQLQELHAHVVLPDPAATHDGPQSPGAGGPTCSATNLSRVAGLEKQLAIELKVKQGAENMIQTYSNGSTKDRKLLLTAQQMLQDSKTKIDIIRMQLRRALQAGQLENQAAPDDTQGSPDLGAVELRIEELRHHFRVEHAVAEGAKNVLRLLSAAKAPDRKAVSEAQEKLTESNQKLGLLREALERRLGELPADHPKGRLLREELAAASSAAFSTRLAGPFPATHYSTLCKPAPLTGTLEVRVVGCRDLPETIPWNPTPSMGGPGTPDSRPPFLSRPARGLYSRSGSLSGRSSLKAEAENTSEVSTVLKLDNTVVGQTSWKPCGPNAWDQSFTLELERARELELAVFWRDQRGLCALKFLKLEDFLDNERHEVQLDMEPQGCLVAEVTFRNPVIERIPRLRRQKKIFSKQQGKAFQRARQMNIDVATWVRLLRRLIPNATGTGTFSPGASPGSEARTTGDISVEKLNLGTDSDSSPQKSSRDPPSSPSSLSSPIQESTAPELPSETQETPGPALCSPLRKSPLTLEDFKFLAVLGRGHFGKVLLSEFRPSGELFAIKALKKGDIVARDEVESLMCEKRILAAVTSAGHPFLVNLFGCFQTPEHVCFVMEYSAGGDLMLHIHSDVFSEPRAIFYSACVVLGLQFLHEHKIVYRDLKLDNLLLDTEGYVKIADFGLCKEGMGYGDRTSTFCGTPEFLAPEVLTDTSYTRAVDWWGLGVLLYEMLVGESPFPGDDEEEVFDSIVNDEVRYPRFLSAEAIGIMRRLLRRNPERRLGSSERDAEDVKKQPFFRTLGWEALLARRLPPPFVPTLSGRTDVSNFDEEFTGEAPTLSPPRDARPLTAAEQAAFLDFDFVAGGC
Chain of Muscle, skeletal receptor tyrosine-protein kinase (Homo sapiens) (O15146 whole entry, the tested form may be a part): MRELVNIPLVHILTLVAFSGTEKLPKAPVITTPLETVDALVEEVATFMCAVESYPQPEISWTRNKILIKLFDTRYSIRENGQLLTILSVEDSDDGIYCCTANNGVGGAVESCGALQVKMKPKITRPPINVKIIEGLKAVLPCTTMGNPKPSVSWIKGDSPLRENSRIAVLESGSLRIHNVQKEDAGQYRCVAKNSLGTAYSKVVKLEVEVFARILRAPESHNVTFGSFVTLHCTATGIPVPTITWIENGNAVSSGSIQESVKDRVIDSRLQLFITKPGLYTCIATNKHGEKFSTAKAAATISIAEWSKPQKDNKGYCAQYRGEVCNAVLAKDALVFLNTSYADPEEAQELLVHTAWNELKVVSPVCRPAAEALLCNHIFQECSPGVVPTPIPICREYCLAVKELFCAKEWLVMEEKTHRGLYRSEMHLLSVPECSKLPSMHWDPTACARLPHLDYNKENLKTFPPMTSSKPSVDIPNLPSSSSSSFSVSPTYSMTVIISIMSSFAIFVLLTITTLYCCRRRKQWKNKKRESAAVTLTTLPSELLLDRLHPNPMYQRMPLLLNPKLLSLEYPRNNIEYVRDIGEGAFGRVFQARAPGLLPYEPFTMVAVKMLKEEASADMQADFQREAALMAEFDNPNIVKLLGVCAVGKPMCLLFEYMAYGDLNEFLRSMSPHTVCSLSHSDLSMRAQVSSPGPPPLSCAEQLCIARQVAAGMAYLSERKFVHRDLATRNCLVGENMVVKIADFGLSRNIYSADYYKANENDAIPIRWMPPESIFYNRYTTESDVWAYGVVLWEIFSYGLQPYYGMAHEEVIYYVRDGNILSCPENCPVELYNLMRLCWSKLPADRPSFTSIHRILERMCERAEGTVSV
Chain of Tyrosine-protein kinase ITK/TSK (Homo sapiens) (Q08881 whole entry, the tested form may be a part): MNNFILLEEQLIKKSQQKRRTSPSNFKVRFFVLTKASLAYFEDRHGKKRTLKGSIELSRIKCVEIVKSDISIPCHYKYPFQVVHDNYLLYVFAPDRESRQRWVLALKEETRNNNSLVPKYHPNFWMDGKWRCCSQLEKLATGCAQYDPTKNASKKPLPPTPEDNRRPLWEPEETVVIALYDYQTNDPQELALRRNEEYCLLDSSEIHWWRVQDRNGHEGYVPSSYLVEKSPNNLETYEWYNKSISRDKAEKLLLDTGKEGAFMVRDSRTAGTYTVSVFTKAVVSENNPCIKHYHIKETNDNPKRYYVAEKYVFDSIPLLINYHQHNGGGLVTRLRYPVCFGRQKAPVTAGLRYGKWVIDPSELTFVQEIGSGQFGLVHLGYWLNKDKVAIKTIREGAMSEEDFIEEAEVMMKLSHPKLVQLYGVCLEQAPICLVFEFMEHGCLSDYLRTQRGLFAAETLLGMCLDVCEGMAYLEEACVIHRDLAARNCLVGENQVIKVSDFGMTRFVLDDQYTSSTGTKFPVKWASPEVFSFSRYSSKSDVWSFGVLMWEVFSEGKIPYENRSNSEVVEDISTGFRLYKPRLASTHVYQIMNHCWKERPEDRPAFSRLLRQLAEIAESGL
Chain of Misshapen-like kinase 1 (Homo sapiens) (Q8N4C8 whole entry, looked up, the tested form may be a part): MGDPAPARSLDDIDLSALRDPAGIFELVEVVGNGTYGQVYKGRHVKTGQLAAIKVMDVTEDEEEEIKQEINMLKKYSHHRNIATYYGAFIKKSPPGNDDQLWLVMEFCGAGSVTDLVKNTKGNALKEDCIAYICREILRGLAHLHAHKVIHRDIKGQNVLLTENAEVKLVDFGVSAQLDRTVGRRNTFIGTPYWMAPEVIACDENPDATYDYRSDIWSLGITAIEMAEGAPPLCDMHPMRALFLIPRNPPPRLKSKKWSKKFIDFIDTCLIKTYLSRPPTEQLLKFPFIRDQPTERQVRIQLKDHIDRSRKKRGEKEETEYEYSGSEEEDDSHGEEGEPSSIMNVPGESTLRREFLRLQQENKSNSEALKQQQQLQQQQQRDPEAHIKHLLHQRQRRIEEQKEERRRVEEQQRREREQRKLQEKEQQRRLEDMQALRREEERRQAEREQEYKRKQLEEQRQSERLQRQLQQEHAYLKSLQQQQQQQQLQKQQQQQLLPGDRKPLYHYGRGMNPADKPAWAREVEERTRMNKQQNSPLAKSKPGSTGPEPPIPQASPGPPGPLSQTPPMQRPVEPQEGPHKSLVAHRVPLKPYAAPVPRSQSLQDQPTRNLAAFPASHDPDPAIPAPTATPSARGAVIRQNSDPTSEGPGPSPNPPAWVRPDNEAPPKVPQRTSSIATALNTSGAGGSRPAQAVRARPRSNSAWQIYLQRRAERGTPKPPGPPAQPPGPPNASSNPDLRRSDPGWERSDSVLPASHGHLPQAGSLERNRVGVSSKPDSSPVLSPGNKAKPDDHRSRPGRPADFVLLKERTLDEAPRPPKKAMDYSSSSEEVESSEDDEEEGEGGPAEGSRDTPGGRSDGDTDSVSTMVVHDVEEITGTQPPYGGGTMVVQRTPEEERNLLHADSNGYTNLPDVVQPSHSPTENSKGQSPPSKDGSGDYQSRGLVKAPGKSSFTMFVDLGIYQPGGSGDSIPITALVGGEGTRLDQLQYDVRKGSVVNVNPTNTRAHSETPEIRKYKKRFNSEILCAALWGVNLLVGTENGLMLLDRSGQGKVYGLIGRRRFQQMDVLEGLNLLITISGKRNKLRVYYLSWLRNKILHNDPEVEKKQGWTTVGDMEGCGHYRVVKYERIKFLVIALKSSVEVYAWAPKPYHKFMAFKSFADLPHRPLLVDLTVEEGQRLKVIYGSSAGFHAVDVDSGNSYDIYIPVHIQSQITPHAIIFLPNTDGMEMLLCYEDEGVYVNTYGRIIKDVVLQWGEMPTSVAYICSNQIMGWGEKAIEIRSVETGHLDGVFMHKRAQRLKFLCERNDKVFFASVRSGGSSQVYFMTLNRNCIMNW

Compound: CN1C(=O)[C@@H](NC(=O)c2n[nH]c3ncc(C(F)(F)C(F)(F)F)cc23)COc2ccccc21
- inhibition [1]: 1%
- inhibition [2]: 0%
- inhibition [3]: 26.5%
- inhibition [4]: 1%
- inhibition [5]: 3.5%
- inhibition [6]: 17%
- inhibition [7]: 2%
- inhibition [8]: 1.5%
- inhibition [9]: 1%
- inhibition [10]: -2%
- inhibition [11]: 9%
- inhibition [12]: 12.5%
- inhibition [13]: 2.5%
- inhibition [14]: 5%
- inhibition [15]: 5.5%
- inhibition [16]: -8%
- inhibition [17]: 8%
- inhibition [18]: 3.5%
- inhibition [19]: 6.5%
- inhibition [20]: 7%
- inhibition [21]: 0.5%
- inhibition [22]: 14.5%
- inhibition [23]: 6%
